Data set [1] concerns the target T1, TrkA dimer (Homo sapiens, UniProt P04629).
T1 construct: endogenous in cells; host or cells: NT2 cells (stably expressing APP751; no TrkA transfection described)
Put plainly: TrkA dimerization immunoblot, NT2 cells. Type of data set: cell-based. Particulars: 48 h. The procedure:
FIGS. 9.4A and B illustrates that THPI-244 increases TrkA dimerization in NT2 cells. FIG. 9.4A illustrates that NT2 cells were treated with THPI-244 at 100 and 200 nM for 48 h and the cell lysates were subjected to immunoblots. TrkA monomer was detected at 140 kDa and dimer at 280 kDA. […] Data are mean±SEM, n=4, **, p<0.01, ***, p<0.001 by ANOVA.

For data set [2], the system named is sAPPα release, fibroblasts derived from AD patients. As to the kind of experiment: sAPPα ELISA, AD fibroblasts. It counts as cell-based, human. Particulars: 24 h. The procedure:
(§1) (1). […] Therefore, we first used fibroblasts derived from AD patients (AG06263C, Coriell Cell repository, supported by NINDS/NIH) and exposed to THPI-244 for 24 h and measured sAPPα release by ELISA as done above for NT2 cells. […] We also confirmed dose-dependent effect of THPI-244 on sAPPα levels in human primary neurons transiently transfected with APP751 with Swedish mutation which is trafficked differently from WT APP and releases more sAPPα. Human neurons were grown on specially coated glass coverslips (cat # GG-18-PDL, NeuVitro, Germany). We could reproducibly achieve nearly 30% transfection efficiency using a nanoparticle based transfection reagent called Neuromag (cat # NM150299, OZ Biosciences, France).
(ELISA stands for enzyme-linked immunosorbent assay.)

Data set [3] deals with TrkA protein levels. As to the kind of experiment: TrkA protein immunoblot, NT2 cells with or without PKC inhibitor. Type of data set: cell-based, human. As to the method: (§2) (3). THPI-244 increases TrkA receptor levels independent of protein kinase C (PKC). Next to clarify whether increased sAPPα levels depends on increased TrkA activation, NT2 cells were treated with THPI-244 with or without TrkA inhibitor (cat # GW 441756, Tocris Bioscience) at 50 nM final concentration. After 24 h, sAPPα levels were quantified from the conditioned medium by immunoblots. […] We next wanted to address whether increased TrkA protein levels by THPI-244 depends on PKC since PKC activators are well-known to induce sAPPα secretion (Etcheberringaray, R., et al., 2004, PNAS, 101, 11141-11146). NT2 cells were similarly treated with THPI-244 at 100 nM with or without PKC inhibitor (GF 109203, cat #0741, Tocris Bioscience) at 1.0 nM and TrkA protein levels were quantified by immunoblots as shown in FIG. 1.10 (right). […] Thus increased sAPPα level by THPI-244 is through upregulation of TrkA receptor independent of PKC.

Data set [4] relates to sAPPα levels in conditioned medium of NT2 cells. As to the kind of experiment: sAPPα immunoblot, NT2 cells with or without TrkA inhibitor. Type of data set: cell-based, human. To be noted: 24 h. As to the method:
as §2
(A western blot detects proteins with antibodies after separation by electrophoresis.)

The subject of data set [5] is fibroblasts derived from AD patients. As to the kind of experiment: MTT cytotoxicity, AD fibroblasts. Type of data set: cell-based, human. To be noted: 24 h exposure. The source says:
(4). Toxicity is another crucial limitation for successful drug development as evidenced by recent failure of γ-secretase inhibitors at the clinical trials due to cytotoxicity (Cole, S L and Vassar, R, 2007, Mol. Neurodeg. 2, 22-47; Doody R S, et al. 2013. N. Eng. J. Med. 369, 341-350). Therefore we measured cytotoxicity by very sensitive MTT assay as described previously (Hayes, C D., et al. 2013, BMC Medicine. 26, 11.81; 23; Hayes, C D., et al., 2012, PLoS One 7, e45841) in human primary neurons obtained from a commercial source (cat #1520, ScienCell, Carlsbad, Calif., USA) and fibroblasts derived directly from A D patients (cat# AG06263C, Coriell Institute Cell repository supported by NINDS, NIH). […] We directly used human neurons for toxicity studies so as to reduce the chances of future failure at a later stage due to toxicity.

For data set [6], the system named is PI3Kα, MAPK, PLC-γ, P75NTR pathways. As to the kind of experiment: Signal transduction analysis, NT2 cells. It counts as cell-based, human. The source says:
(2). THPI-244 increases sAPPα by a novel mechanism of upregulating TrkA, a neurotrophic receptor. Therefore, in addition to increasing neuroprotective sAPPα and decreasing toxic Aβ, THPI-244 mediated increased TrkA protein levels are expected to provide neurotrophic support. Following the validation of the effect of THPI-244 in increasing sAPPα levels in CHO cells, NT2 cells, AD fibroblasts and human primary neurons, we were interested in identifying the molecular target of THPI-244 for unraveling the molecular mechanism by which it increases sAPPα which in turn can predict toxicity profile and whether to pursue long-term studies. Increased protein levels of both native and phosphorylated form of TrkA in NT2 cells and mouse brains by THPI-244 validated TrkA as the target.

Data set [7] concerns C57BL/6 mice. Put plainly: Lethal dose (LD50) study in mice. Type of data set: in vivo, mouse. The source says: Wild-type (WT) C57BL/6 mice aged about 6 months were used in the study. The compound THPI-244 was initially dissolved in 100% DMSO and then diluted to final 10% DMSO with phosphate buffered saline (PBS). […] Among these 6 mice, 3 mice received repeated injections (i.p) of compound THPI-244 for 5 days.

Data set [8] has as its system sAPPα levels, human primary neurons transiently transfected with APP751 with Swedish mutation. As to the kind of experiment: sAPPα ELISA, human primary neurons transfected with APP751. Type of data set: cell-based. As to the method: as §1

T1 sequence (P04629 33-796): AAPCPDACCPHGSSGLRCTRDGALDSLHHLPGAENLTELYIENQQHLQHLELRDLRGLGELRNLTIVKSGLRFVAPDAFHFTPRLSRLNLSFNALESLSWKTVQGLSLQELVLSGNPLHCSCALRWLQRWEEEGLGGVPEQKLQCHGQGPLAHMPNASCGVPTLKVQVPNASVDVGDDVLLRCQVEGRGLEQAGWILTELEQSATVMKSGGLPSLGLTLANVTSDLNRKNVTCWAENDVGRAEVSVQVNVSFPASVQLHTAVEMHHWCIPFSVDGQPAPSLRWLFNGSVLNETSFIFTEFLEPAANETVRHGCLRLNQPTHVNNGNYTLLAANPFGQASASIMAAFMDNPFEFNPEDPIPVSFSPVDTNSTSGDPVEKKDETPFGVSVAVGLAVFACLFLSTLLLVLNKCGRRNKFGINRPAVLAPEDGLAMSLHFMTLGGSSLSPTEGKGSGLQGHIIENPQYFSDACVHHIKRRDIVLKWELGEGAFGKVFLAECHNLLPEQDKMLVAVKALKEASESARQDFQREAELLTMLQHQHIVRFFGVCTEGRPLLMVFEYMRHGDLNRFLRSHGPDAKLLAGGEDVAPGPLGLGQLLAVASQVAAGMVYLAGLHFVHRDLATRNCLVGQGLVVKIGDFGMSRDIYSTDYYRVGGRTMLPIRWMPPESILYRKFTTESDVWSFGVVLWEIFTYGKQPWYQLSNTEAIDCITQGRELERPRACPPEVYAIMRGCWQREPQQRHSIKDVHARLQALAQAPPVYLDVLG

For `O=C(Cc1ccccc1)N[C@H](CNc1nc(CN2CCN(C(=O)Cc3ccccc3)CC2)cs1)c1ccccc1` [THPI-244], the results for the “increase of TrkA dimer” value in data set [1] (100 nM) and in data set [1] (200 nM) were 82% and 134%, respectively. Moreover, the “concentration from which sAPPα increase is significant” value in data set [2] is given as 50 nM. Besides, the TrkA protein levels in data set [3] (THPI-244 100 nM) was determined as 197%; in data set [3] (THPI-244 100 nM with PKC inhibitor GF 109203 1.0 nM) it was 192%. For the same molecule, the sAPPα levels in data set [4] (THPI-244 100 nM with TrkA inhibitor GW 441756 50 nM) was determined as 132%; in data set [4] (THPI-244 100 nM), 245%. For the same molecule, the “concentration from which cytotoxicity is significant” value in data set [5] was found to be 50 µM. Moreover, the “MAPK or PLC-γ pathways” value in data set [6] is “not”. Moreover, the PI3Kα pathway entry in data set [6] is “activation”. The death entry in data set [7] (100 mg/kg i.p., 6 mice, monitored for 5 days) is “did not result in the death of any of the 6 mice”. For the same molecule, the survival result in data set [7] (200 mg/kg, single mouse) is “survived without visible ill effects”. The lethal effect result in data set [7] (repeated i.p. injections for 5 days, 3 mice) is listed as “None of the mice showed any lethal effect”. The “increase of sAPPα levels” value is on record as 171% in data set [8] (50 nM) and 301% in data set [8] (2000 nM).

Values taken from patent US20150315179A1, “COMPOUNDS AND METHODS OF TREATING NEUROLOGICAL DISORDERS” (Torrey Pines Institute For Molecular Studies, priority 2014, published 2015).
